One data set concerns the target GSK3β (Homo sapiens, UniProt P49841). The data set can be described thus: Inhibitory activity against GSK3β (33P-ATP phosphorylation of prephosphorylated GS1 peptide, four protocols). It counts as biochemical. As for the experimental part: Test Example:Inhibitory Activity of the Medicament of the Present Invention Against GSK3β Four different protocols can be used. In a first protocol: 7.5 μM of prephosphorylated GS1 peptide and 10 μM ATP (containing 300,000 cpm of ^33P-ATP) were incubated in 25 mM Tris-HCl, pH 7.5, 0.6 mM DTT, 6 mM MgCl2, 0.6 mM EGTA, 0.05 mg/ml BSA buffer for 1 hour at room temperature in the presence of GSK3beta (total reaction volume: 100 microliters). In a second protocol: 4.1 μM of prephosphorylated GS1 peptide and 42 μM ATP (containing 260,000 cpm ^33P-ATP) were incubated in 80 mM Mes-NaOH, pH 6.5, 1 mM Mg acetate, 0.5 mM EGTA, 5 mM 2-mercaptoethanol, 0.02% Tween 20, 10% glycerol buffer for 2 hours at room temperature in the presence of GSK3beta. In a third protocol: 7.5 μM of prephosphorylated GS1 peptide and 10 μM ATP (containing 300,000 cpm of ^33P-ATP) were incubated in 50 mM Hepes, pH 7.2, 1 mM DTT, 1 mM MgCl2, 1 mM EGTA, 0.01% Tween 20 buffer for one hour at room temperature in the presence of GSK3beta (total reaction volume: 100 microliters). […] Incorporated ^33P radioactivity was determined by liquid scintillation spectrometry. […]

The source of these data is patent publication US9073914B2, “Substituted alkyl pyrimidin-4-one derivatives” (SANOFI, priority 2008, dated 2015).

GSK3β, sequence (P49841 whole entry): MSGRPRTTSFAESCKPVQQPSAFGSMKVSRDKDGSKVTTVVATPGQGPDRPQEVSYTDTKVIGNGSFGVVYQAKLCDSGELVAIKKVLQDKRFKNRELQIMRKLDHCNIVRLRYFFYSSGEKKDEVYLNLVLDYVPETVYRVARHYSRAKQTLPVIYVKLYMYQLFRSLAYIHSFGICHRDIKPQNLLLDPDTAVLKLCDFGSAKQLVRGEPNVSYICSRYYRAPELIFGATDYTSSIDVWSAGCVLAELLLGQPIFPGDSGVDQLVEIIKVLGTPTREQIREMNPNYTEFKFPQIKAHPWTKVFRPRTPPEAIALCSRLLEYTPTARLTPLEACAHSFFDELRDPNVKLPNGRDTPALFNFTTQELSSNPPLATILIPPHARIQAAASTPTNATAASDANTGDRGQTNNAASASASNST

In the case of `O=c1cc(-c2ccncn2)nc2n1CCCCC2C1CC1` (racemic) [Compound No 20 of table 2, (+/−)-10-Cyclopropyl-2-pyrimidin-4-yl-7,8,9,10-tetrahydro-6H-pyrimido[1,2-α]azepin-4-one], the melting point is 130 to 132 °C. Moreover, on GSK3β (protocol 4 (commercial GSK3beta, Millipore; 10 μM ATP; 90 minutes)), the IC50 stood at 8 nM. Turning to “(+/−)-9-Ethyl-4-oxo-2-pyrimidin-4-yl-5,6,8,9-tetrahydro-4H-1,4-a,7-triaza-benzocycloheptene-7-carboxylic acid ethyl ester [Compound No 1 of table 3]”, on GSK3β (at 1 μM), the “inhibition of GSK3β” value is recorded as 63%.

The term melting point denotes the temperature, or range, at which the solid turns liquid. What is called IC50 is the concentration needed to halve the response being measured. The low end stands for inhibition by little substance, the high end for a need for much substance.
